From publication PMC5218480 (PLoS ONE, 2017)

Test system: MV-4-11 cells
Test: Gene expression microarray analysis (Affymetrix PrimeView) and GSEA
Type: cell-based, human
Set-up: RFU PODN (11730768_x_at) / Fold change /veh PODN (11730768_x_at) / RFU LINC00158 (11744669_a_at) / Fold change /veh LINC00158 (11744669_a_at) / RFU DUSP10 (11751237_a_at) / Fold change /veh DUSP10 (11751237_a_at) / RFU ID3 (11757404_x_at) / Fold change /veh ID3 (11757404_x_at) / RFU PLEKHG5 (11737974_s_at) / Fold change /veh PLEKHG5 (11737974_s_at) / RFU LRRC4B (11730491_at) / Fold change /veh LRRC4B (11730491_at) / RFU GIMAP4 (11747438_a_at) / Fold change /veh GIMAP4 (11747438_a_at) / RFU KRT8 (11758183_x_at) / Fold change /veh KRT8 (11758183_x_at) / RFU CNN1 (11734310_a_at) / Fold change /veh CNN1 (11734310_a_at) / RFU VPS37D (11726825_at) / Fold change /veh VPS37D (11726825_at) / RFU C10orf10 (11716522_x_at) / Fold change /veh C10orf10 (11716522_x_at) / RFU KIR2DL2 /// KIR2DL4 /// KIR2DL5A /// KIR2DL5B /// KIR2DS1 /// KIR2DS2 /// KIR2DS3 /// KIR2DS4 /// KIR3DL3 /// KIR3DL3 /// KIR3DS1 (11738374_at) / Fold change /veh KIR2DL2 /// KIR2DL4 /// KIR2DL5A /// KIR2DL5B /// KIR2DS1 /// KIR2DS2 /// KIR2DS3 /// KIR2DS4 /// KIR3DL3 /// KIR3DL3 /// KIR3DS1 (11738374_at) / RFU C1QL1 (11718748_at) / Fold change /veh C1QL1 (11718748_at) / RFU TMPRSS4 (11747572_a_at) / Fold change /veh TMPRSS4 (11747572_a_at) / RFU HAMP (11756126_x_at) / Fold change /veh HAMP (11756126_x_at) / RFU RNFT2 (11725882_a_at) / Fold change /veh RNFT2 (11725882_a_at) / RFU NR4A2 (11747474_a_at) / Fold change /veh NR4A2 (11747474_a_at) / RFU ABCC12 (11746883_a_at) / Fold change /veh ABCC12 (11746883_a_at) / RFU TMEM136 (11760407_x_at) / Fold change /veh TMEM136 (11760407_x_at) / RFU CLDN22 /// WWC2 (11732394_at) / Fold change /veh CLDN22 /// WWC2 (11732394_at) / RFU HLA-DPB1 (11760878_x_at) / Fold change /veh HLA-DPB1 (11760878_x_at) / RFU SPINT1 (11716480_a_at) / Fold change /veh SPINT1 (11716480_a_at) / RFU GAP43 (11754022_s_at) / Fold change /veh GAP43 (11754022_s_at) / RFU A4GNT (11735810_at) / Fold change /veh A4GNT (11735810_at) / RFU PRB3 (11715151_x_at) / Fold change /veh PRB3 (11715151_x_at) / RFU TUBB4B (11761932_at) / Fold change /veh TUBB4B (11761932_at) / RFU CAPN14 (11732068_a_at) / Fold change /veh CAPN14 (11732068_a_at) / RFU TMCC2 (11721928_a_at) / Fold change /veh TMCC2 (11721928_a_at) / RFU IRGQ (11745062_a_at) / Fold change /veh IRGQ (11745062_a_at) / RFU FAM174B (11720279_a_at) / Fold change /veh FAM174B (11720279_a_at) / RFU TMPRSS4 (11748680_a_at) / Fold change /veh TMPRSS4 (11748680_a_at) / RFU FAM212B (11763350_a_at) / Fold change /veh FAM212B (11763350_a_at) / RFU PLEKHG5 (11743358_a_at) / Fold change /veh PLEKHG5 (11743358_a_at) / RFU ZSCAN30 (11745921_a_at) / Fold change /veh ZSCAN30 (11745921_a_at) / RFU CMKLR1 (11741424_a_at) / Fold change /veh CMKLR1 (11741424_a_at) / RFU LOC101060620 /// MAPK8IP1 (11723275_at) / Fold change /veh LOC101060620 /// MAPK8IP1 (11723275_at) / RFU SPTSSB (11747773_x_at) / Fold change /veh SPTSSB (11747773_x_at) / RFU PRSS12 (11739890_at) / Fold change /veh PRSS12 (11739890_at) / RFU BIN1 (11741810_x_at) / Fold change /veh BIN1 (11741810_x_at) / RFU WNT11 (11732464_a_at) / Fold change /veh WNT11 (11732464_a_at) / RFU C10orf10 (11716521_a_at) / Fold change /veh C10orf10 (11716521_a_at) / RFU C5orf56 (11738089_at) / Fold change /veh C5orf56 (11738089_at) / RFU CYB561 (11721691_x_at) / Fold change /veh CYB561 (11721691_x_at) / RFU ANKRD19P (11752326_a_at) / Fold change /veh ANKRD19P (11752326_a_at) / RFU OR2T12 /// OR2T33 /// OR2T8 (11738714_s_at) / Fold change /veh OR2T12 /// OR2T33 /// OR2T8 (11738714_s_at) / RFU VCAN (11748164_a_at) / Fold change /veh VCAN (11748164_a_at) / RFU JSRP1 (11732532_at) / Fold change /veh JSRP1 (11732532_at) / RFU KRTAP10-11 (11738290_x_at) / Fold change /veh KRTAP10-11 (11738290_x_at) / RFU MYO3A (11730013_a_at) / Fold change /veh MYO3A (11730013_a_at) / RFU EBF3 (11725865_a_at) / Fold change /veh EBF3 (11725865_a_at) / RFU CAMK2N1 (11719241_x_at) / Fold change /veh CAMK2N1 (11719241_x_at) / RFU C5orf56 (11738088_a_at) / Fold change /veh C5orf56 (11738088_a_at) / RFU OLFML3 (11715873_a_at) / Fold change /veh OLFML3 (11715873_a_at) / RFU LOC100653217 /// NTM (11731650_a_at) / Fold change /veh LOC100653217 /// NTM (11731650_a_at) / RFU MAPK11 (11762145_a_at) / Fold change /veh MAPK11 (11762145_a_at) / RFU FIZ1 (11724087_x_at) / Fold change /veh FIZ1 (11724087_x_at) / RFU OASL (11726364_x_at) / Fold change /veh OASL (11726364_x_at) / RFU SOX15 (11748057_x_at) / Fold change /veh SOX15 (11748057_x_at) / RFU CD79A (11719716_a_at) / Fold change /veh CD79A (11719716_a_at) / RFU HIST1H1D (11736915_at) / Fold change /veh HIST1H1D (11736915_at) / RFU CASKIN2 (11723855_a_at) / Fold change /veh CASKIN2 (11723855_a_at) / RFU LOC730098 (11760151_x_at) / Fold change /veh LOC730098 (11760151_x_at) / RFU OR4N2 (11742367_at) / Fold change /veh OR4N2 (11742367_at) / RFU PRRT2 (11749266_a_at) / Fold change /veh PRRT2 (11749266_a_at) / RFU SNX32 (11753110_a_at) / Fold change /veh SNX32 (11753110_a_at) / RFU CDHR5 (11726645_a_at) / Fold change /veh CDHR5 (11726645_a_at) / RFU RCAN1 (11760418_a_at) / Fold change /veh RCAN1 (11760418_a_at) / RFU FAM167A (11723789_a_at) / Fold change /veh FAM167A (11723789_a_at) / RFU FAM26E (11764081_at) / Fold change /veh FAM26E (11764081_at) / RFU ISYNA1 (11749810_s_at) / Fold change /veh ISYNA1 (11749810_s_at) / RFU ACY1 (11761880_at) / Fold change /veh ACY1 (11761880_at) / RFU 11764098_at / Fold change /veh 11764098_at / RFU SAMD14 (11745864_x_at) / Fold change /veh SAMD14 (11745864_x_at) / RFU NPB (11741838_a_at) / Fold change /veh NPB (11741838_a_at) / RFU TMPRSS6 (11731388_a_at) / Fold change /veh TMPRSS6 (11731388_a_at) / RFU KRTAP10-2 (11738614_at) / Fold change /veh KRTAP10-2 (11738614_at) / RFU ARHGAP8 /// PRR5-ARHGAP8 (11727945_x_at) / Fold change /veh ARHGAP8 /// PRR5-ARHGAP8 (11727945_x_at) / RFU KRTAP5-7 /// NADSYN1 (11734609_at) / Fold change /veh KRTAP5-7 /// NADSYN1 (11734609_at) / RFU RASL12 (11751679_a_at) / Fold change /veh RASL12 (11751679_a_at) / RFU CDKN2B (11736163_a_at) / Fold change /veh CDKN2B (11736163_a_at) / RFU PRF1 (11729649_at) / Fold change /veh PRF1 (11729649_at) / RFU, ZNF638 /// ZNF638-IT1 / Fold change vs veh, ZNF638 /// ZNF638-IT1 / RFU, PANK3 / Fold change vs veh, PANK3 / RFU, SH3YL1 / Fold change vs veh, SH3YL1 / RFU, ZEB2 / Fold change vs veh, ZEB2 / RFU, NRIP1 / Fold change vs veh, NRIP1 / RFU, PTTG1IP / Fold change vs veh, PTTG1IP / RFU, CAPN2 / Fold change vs veh, CAPN2 / RFU, MED14 / Fold change vs veh, MED14 / RFU, SNORA58 / Fold change vs veh, SNORA58 / RFU, C1orf63 / Fold change vs veh, C1orf63 / RFU, LRRFIP1 / Fold change vs veh, LRRFIP1 / RFU, NDUFAF7 / Fold change vs veh, NDUFAF7 / RFU, SLC12A2 / Fold change vs veh, SLC12A2 / RFU, IBTK / Fold change vs veh, IBTK / RFU, ESF1 / Fold change vs veh, ESF1 / Fold change vs veh, TMEM50B / RFU, TAOK1 / Fold change vs veh, TAOK1 / RFU, ACBD3 / Fold change vs veh, ACBD3 / RFU, TMA16 / Fold change vs veh, TMA16 / RFU, RWDD3 / Fold change vs veh, RWDD3 / RFU, BCAT1 / Fold change vs veh, BCAT1 / RFU, EDEM3 / Fold change vs veh, EDEM3 / RFU, TMEM33 / Fold change vs veh, TMEM33 / RFU, WDR75 / Fold change vs veh, WDR75 / RFU, AHCTF1 / Fold change vs veh, AHCTF1 / RFU, TFRC / Fold change vs veh, TFRC / RFU, ZDHHC17 / Fold change vs veh, ZDHHC17 / RFU, NOM1 / Fold change vs veh, NOM1 / RFU, ARL8B / Fold change vs veh, ARL8B / RFU, ZBTB11 / Fold change vs veh, ZBTB11 / RFU, TAMM41 / Fold change vs veh, TAMM41 / RFU, KIAA1704 /// LOC100996395 / Fold change vs veh, KIAA1704 /// LOC100996395 / RFU, ING1 / Fold change vs veh, ING1 / RFU, TRMT61B / Fold change vs veh, TRMT61B / RFU, FUBP3 / Fold change vs veh, FUBP3 / RFU, TP53 / Fold change vs veh, TP53 / RFU, TNKS2 / Fold change vs veh, TNKS2 / RFU, ZFP14 / Fold change vs veh, ZFP14 / RFU, ACTR2 / Fold change vs veh, ACTR2 / RFU, PPP3R1 / Fold change vs veh, PPP3R1 / RFU, PIK3R1 / Fold change vs veh, PIK3R1 / RFU, HNRNPA1 / Fold change vs veh, HNRNPA1 / RFU, RNF170 / Fold change vs veh, RNF170 / RFU, ZNF28 / Fold change vs veh, ZNF28 / RFU, RNGTT / Fold change vs veh, RNGTT / RFU, OGT / Fold change vs veh, OGT / RFU, BRD1 / Fold change vs veh, BRD1 / RFU, MARS / Fold change vs veh, MARS / RFU, ZNF655 / Fold change vs veh, ZNF655 / RFU, FAHD1 / Fold change vs veh, FAHD1 / RFU, BDP1 / Fold change vs veh, BDP1 / RFU, LRRCC1 / Fold change vs veh, LRRCC1 / RFU, ARID1A / Fold change vs veh, ARID1A / RFU, ZNF146 / Fold change vs veh, ZNF146 / RFU, ZNF330 / Fold change vs veh, ZNF330 / RFU, GPN3 / Fold change vs veh, GPN3 / RFU, C9orf123 / Fold change vs veh, C9orf123 / RFU, N4BP2L2 / Fold change vs veh, N4BP2L2 / RFU, ARFIP1 / Fold change vs veh, ARFIP1 / RFU, FAM179B / Fold change vs veh, FAM179B / RFU, BCL10 / Fold change vs veh, BCL10 / RFU, UHRF1BP1L / Fold change vs veh, UHRF1BP1L / RFU, BET1 / Fold change vs veh, BET1 / RFU, CNOT2 / Fold change vs veh, CNOT2 / RFU, ZNF268 / Fold change vs veh, ZNF268 / Fold change vs veh, ZNF507 / RFU, DGCR2 / Fold change vs veh, DGCR2 / RFU, WDSUB1 / Fold change vs veh, WDSUB1 / Fold change vs veh, HSP90B1 /// MIR3652 / RFU, ADSS / Fold change vs veh, ADSS / RFU, GK / Fold change vs veh, GK / RFU, ZNF148 / Fold change vs veh, ZNF148 / RFU, TAF9 / Fold change vs veh, TAF9 / RFU, SLC1A5 / Fold change vs veh, SLC1A5 / RFU, SLMO2 / Fold change vs veh, SLMO2 / RFU, ABCC4 / Fold change vs veh, ABCC4 / RFU, LOC101060439 /// RAP1B / Fold change vs veh, LOC101060439 /// RAP1B / RFU, RFX7 / Fold change vs veh, RFX7 / RFU, GTPBP10 / Fold change vs veh, GTPBP10 / RFU, CNEP1R1 / Fold change vs veh, CNEP1R1 / RFU, BIVM-ERCC5 /// ERCC5 / Fold change vs veh, BIVM-ERCC5 /// ERCC5 / RFU, ILF3 / Fold change vs veh, ILF3 / RFU 11762660_at / Fold change /veh 11762660_at / RFU VCAN (11757783_s_at) / Fold change /veh VCAN (11757783_s_at) / RFU DDX43 (11728927_at) / Fold change /veh DDX43 (11728927_at) / RFU KRT8 (11758188_x_at) / Fold change /veh KRT8 (11758188_x_at) / RFU NKD1 (11759106_at) / Fold change /veh NKD1 (11759106_at) / RFU SRD5A1 (11742802_a_at) / Fold change /veh SRD5A1 (11742802_a_at) / RFU TPSAB1 /// TPSB2 (11721975_s_at) / Fold change /veh TPSAB1 /// TPSB2 (11721975_s_at) / RFU GSTM3 (11746129_a_at) / Fold change /veh GSTM3 (11746129_a_at) / RFU IL23R (11737362_x_at) / Fold change /veh IL23R (11737362_x_at) / RFU TMEM51 (11727254_a_at) / Fold change /veh TMEM51 (11727254_a_at) / RFU PIWIL2 (11732686_x_at) / Fold change /veh PIWIL2 (11732686_x_at) / RFU ORM1 (11744905_x_at) / Fold change /veh ORM1 (11744905_x_at) / RFU CCDC152 (11743942_at) / Fold change /veh CCDC152 (11743942_at) / RFU ECM1 (11717891_a_at) / Fold change /veh ECM1 (11717891_a_at) / RFU IL23R (11748794_a_at) / Fold change /veh IL23R (11748794_a_at) / RFU TNFAIP8L3 (11732012_x_at) / Fold change /veh TNFAIP8L3 (11732012_x_at) / RFU MBOAT4 (11741988_at) / Fold change /veh MBOAT4 (11741988_at) / RFU 11764193_at / Fold change /veh 11764193_at / RFU TMEM53 (11763286_at) / Fold change /veh TMEM53 (11763286_at) / RFU MAGEB2 (11727129_at) / Fold change /veh MAGEB2 (11727129_at) / RFU TMEM200A (11744735_a_at) / Fold change /veh TMEM200A (11744735_a_at) / RFU CCDC152 (11751479_a_at) / Fold change /veh CCDC152 (11751479_a_at) / RFU FAM211A (11726209_a_at) / Fold change /veh FAM211A (11726209_a_at) / RFU RGS16 (11746705_a_at) / Fold change /veh RGS16 (11746705_a_at) / RFU VCAN (11755009_s_at) / Fold change /veh VCAN (11755009_s_at) / RFU RHOB (11743442_s_at) / Fold change /veh RHOB (11743442_s_at) / RFU RGS16 (11720943_a_at) / Fold change /veh RGS16 (11720943_a_at) / RFU RGS16 (11720944_at) / Fold change /veh RGS16 (11720944_at) / RFU, VPS4B / Fold change vs veh, VPS4B / RFU, CREB1 / Fold change vs veh, CREB1 / RFU, DNAJC13 / Fold change vs veh, DNAJC13 / RFU, GNAQ / Fold change vs veh, GNAQ / RFU, CDK5R1 / Fold change vs veh, CDK5R1 / RFU, ZRANB3 / Fold change vs veh, ZRANB3 / RFU, CUL4A / Fold change vs veh, CUL4A / RFU, CCNY / Fold change vs veh, CCNY / RFU, UFL1 / Fold change vs veh, UFL1 / RFU, COG3 / Fold change vs veh, COG3 / RFU, DIAPH2 / Fold change vs veh, DIAPH2 / RFU, SKA2 / Fold change vs veh, SKA2 / RFU, AFF3 / Fold change vs veh, AFF3 / RFU, LMF1 / Fold change vs veh, LMF1 / RFU, IPO11 / Fold change vs veh, IPO11 / RFU, DFFB / Fold change vs veh, DFFB / RFU, FOXP1 / Fold change vs veh, FOXP1 / RFU, CARD8 / Fold change vs veh, CARD8 / RFU, STRN3 / Fold change vs veh, STRN3 / RFU, ADK / Fold change vs veh, ADK / RFU, RASSF2 / Fold change vs veh, RASSF2 / RFU, WIPF1 / Fold change vs veh, WIPF1 / RFU, LARP1B / Fold change vs veh, LARP1B / RFU, RASA1 / Fold change vs veh, RASA1 / RFU, RB1 / Fold change vs veh, RB1 / RFU, PPFIA1 / Fold change vs veh, PPFIA1 / RFU, MAT2A / Fold change vs veh, MAT2A / RFU, CCT5 / Fold change vs veh, CCT5 / RFU, WDR92 / Fold change vs veh, WDR92 / RFU, CUX1 / Fold change vs veh, CUX1 / RFU, TTC7A / Fold change vs veh, TTC7A / RFU, TMEM135 / Fold change vs veh, TMEM135 / RFU, DEPTOR / Fold change vs veh, DEPTOR / RFU, CPM / Fold change vs veh, CPM / RFU, DNAJB6 / Fold change vs veh, DNAJB6 / RFU, CACNA2D3 / Fold change vs veh, CACNA2D3 / RFU, DTX4 / Fold change vs veh, DTX4 / RFU, TFCP2 / Fold change vs veh, TFCP2 / RFU, GMCL1 /// GMCL1P1 / Fold change vs veh, GMCL1 /// GMCL1P1 / RFU, AEBP2 / Fold change vs veh, AEBP2 / RFU, SNHG1 /// SNORD22 /// SNORD25 /// SNORD26 /// SNORD27 /// SNORD28 /// SNORD29 /// SNORD31 / Fold change vs veh, SNHG1 /// SNORD22 /// SNORD25 /// SNORD26 /// SNORD27 /// SNORD28 /// SNORD29 /// SNORD31 / Fold change (Aza/veh), C12orf56 (ProbeSet 11735607_a_at) / Fold change (ACY-1035/veh), C12orf56 (ProbeSet 11735607_a_at) / Fold change (Aza/veh), FGFR1OP (ProbeSet 11751329_s_at) / Fold change (ACY-1035/veh), FGFR1OP (ProbeSet 11751329_s_at) / Fold change (Aza/veh), VPS36 (ProbeSet 11739960_a_at) / Fold change (ACY-1035/veh), VPS36 (ProbeSet 11739960_a_at) / RFU SYPL1 (11715823_x_at) / Fold change /veh SYPL1 (11715823_x_at) / RFU IGFBP7 (11715501_s_at) / Fold change /veh IGFBP7 (11715501_s_at) / RFU REEP3 (11722064_at) / Fold change /veh REEP3 (11722064_at) / RFU IGLL1 (11728026_x_at) / Fold change /veh IGLL1 (11728026_x_at): dose or concentration left out as unconfirmed
Settings: MV-4-11 cells, 48 hours

Nc1ccc(-c2cccs2)cc1NC(=O)c1ccc2c(c1)cc(C1CC1)n2CCN1CCOCC1 [ACY-1035]
RFU SOX15 (11748057_x_at): 11.14 RFU
